From patent US6355799B1, “Substituted benzene compounds, process for their preparation, and herbicidal and defoliant compositions containing them” (ISK Americas Incorporated, priority 1997, dated 2002)

How the values were obtained:
Format in all cases: in vivo
[1] = test system: upland rice (Oryza sp., var. Tebonnet, RICE); experiment: Post-emerge test, crop safety; settings: post-emerge, 14 days after application, rating scale 0-100
Summary of the method: (§1)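 Each test used a mechanized track sprayer delivering 187 l/ha of acetone solution at 15–1000 g ai/ha. Post-emerge foliage at 2–3 leaves was treated with added 0.25% v/v non-ionic surfactant and bottom-watered only. Injury was assessed on day 14, where 100 means total kill.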

[2] = test system: field corn (Zea mays L., var. Dekalb 535, CORN); experiment: Post-emerge test, crop safety; settings: post-emerge, 14 days after application, rating scale 0-100
Summary of the method: as §1

[3] = test system: redroot pigweed (Amaranthus retroflexus, AMARE); experiment: Pre-emerge test, greenhouse herbicide activity screening; settings: rated 14 days after application, 0 = no damage, 100 = complete death
Summary of the method: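 Sandy loam pots; pre-emerge: sown 1 d pre-spray, surface-watered after, then bottom-watered. Post-emerge: sown 8–21 d before, 2–3 leaf stage, + 0.25% v/v NIS, bottom-watered. Acetone, 187 l/ha track spray, 15–1000 g ai/ha. 0–100 injury score, day 14.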

[4] = test system: barnyardgrass (Echinochloa crus-galli, ECHCG); experiment: as above; settings: rated 14 days after application, 0 = no damage, 100 = complete death
Summary of the method: (§2)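 Plants grown in 10 cm pots of sandy loam mix received acetone-dissolved compounds through a moving flat-fan nozzle. Doses ranged from 15 to 1000 g ai/ha. Pre-emerge pots were seeded one day earlier, post-emerge pots 8–21 days earlier. Fourteen days on, each pot was graded 0–100 for damage.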

[5] = test system: johnsongrass (Sorghum halepense, SORHA); experiment: as above; settings: rated 14 days after application, 0 = no damage, 100 = complete death
Summary of the method: as §2

[6] = test system: large crabgrass (Digitaria sanguinalis, DIGSA); experiment: as above; settings: rated 14 days after application, 0 = no damage, 100 = complete death
Summary of the method: as §2

[7] = test system: sicklepod (Cassia obtusifolia, CASOB); experiment: as above; settings: rated 14 days after application, 0 = no damage, 100 = complete death
Summary of the method: as §2

[8] = test system: velvetleaf (Abutilon theophrasti, ABUTH); experiment: as above; settings: rated 14 days after application, 0 = no damage, 100 = complete death
Summary of the method: as §2

[9] = test system: lambsquarters (Chenopodium album, CHEAL); experiment: as above; settings: rated 14 days after application, 0 = no damage, 100 = complete death
Summary of the method: as §2

[10] = test system: green foxtail (Setaria viridis, SETVI); experiment: as above; settings: rated 14 days after application, 0 = no damage, 100 = complete death
Summary of the method: as §2

[11] = test system: ivyleaf morningglory (Ipomoea hederacea, IPOHE); experiment: as above; settings: rated 14 days after application, 0 = no damage, 100 = complete death
Summary of the method: as §2

[12] = test system: upland rice (Oryza sp., var. Tebonnet, RICE); experiment: Pre-emerge test, crop safety; settings: rated 14 days after application, 0 = no damage, 100 = complete death
Summary of the method: (§3)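 Rating: 0–100 visual injury, 14 DAA. Application: acetone, 187 l/ha, 15–1000 g ai/ha, flat-fan track sprayer with nozzle 40–45 cm above soil or canopy. Post-emerge runs used 0.25% v/v surfactant on 2–3 leaf plants.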

[13] = test system: field corn (Zea mays L., var. Dekalb 535, CORN); experiment: Pre-emerge test, crop safety; settings: rated 14 days after application, 0 = no damage, 100 = complete death
Summary of the method: as §3

[14] = test system: barnyardgrass (Echinochloa crus-galli, ECHCG); experiment: Post-emerge test, greenhouse herbicide activity screening; settings: post-emerge, 14 days after application, rating scale 0-100
Summary of the method: (§4)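 Visual ratings on a 0-100 scale (0 no damage, 100 all plants dead) were taken at 14 days after treatment. Rates of 15-1000 g ai/ha in acetone, 187 l/ha, were sprayed onto soil one day after planting (pre-emerge) or onto 2-3 leaf plants with 0.25% v/v surfactant (post-emerge).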

[15] = test system: johnsongrass (Sorghum halepense, SORHA); experiment: as above; settings: post-emerge, 14 days after application, rating scale 0-100
Summary of the method: as §4

[16] = test system: large crabgrass (Digitaria sanguinalis, DIGSA); experiment: as above; settings: post-emerge, 14 days after application, rating scale 0-100
Summary of the method: as §4

[17] = test system: sicklepod (Cassia obtusifolia, CASOB); experiment: as above; settings: post-emerge, 14 days after application, rating scale 0-100
Summary of the method: as §4

[18] = test system: velvetleaf (Abutilon theophrasti, ABUTH); experiment: as above; settings: post-emerge, 14 days after application, rating scale 0-100
Summary of the method: as §4

[19] = test system: lambsquarters (Chenopodium album, CHEAL); experiment: as above; settings: post-emerge, 14 days after application, rating scale 0-100
Summary of the method: as §4

[20] = test system: green foxtail (Setaria viridis, SETVI); experiment: as above; settings: post-emerge, 14 days after application, rating scale 0-100
Summary of the method: as §4

[21] = test system: redroot pigweed (Amaranthus retroflexus, AMARE); experiment: as above; settings: post-emerge, 14 days after application, rating scale 0-100
Summary of the method: as §4

[22] = test system: ivyleaf morningglory (Ipomoea hederacea, IPOHE); experiment: as above; settings: post-emerge, 14 days after application, rating scale 0-100
Summary of the method: as §4

Compound: COc1c(Cl)cc(F)c(-n2c(=O)cc(C(F)(F)F)n(C)c2=O)c1NC(=O)C=Cc1ccccc1Cl [2-82]
- phytotoxicity rating RICE ([1]; 63 g ai/ha): 50
- phytotoxicity rating RICE ([1]; 250 g ai/ha): 40
- phytotoxicity rating CORN ([2]; 63 g ai/ha): 10
- phytotoxicity rating CORN ([2]; 250 g ai/ha): 25
- Pre-emerge Herbicidal Activity, phytotoxicity rating (0-100), AMARE ([3]; 63 g ai/ha): 100
- Pre-emerge Herbicidal Activity, phytotoxicity rating (0-100), AMARE ([3]; 250 g ai/ha): 100
- Pre-emerge Herbicidal Activity, phytotoxicity rating (0-100), ECHCG ([4]; 63 g ai/ha): 0
- Pre-emerge Herbicidal Activity, phytotoxicity rating (0-100), ECHCG ([4]; 250 g ai/ha): 0
- Pre-emerge Herbicidal Activity, phytotoxicity rating (0-100), SORHA ([5]; 63 g ai/ha): 0
- Pre-emerge Herbicidal Activity, phytotoxicity rating (0-100), SORHA ([5]; 250 g ai/ha): 20
- Pre-emerge Herbicidal Activity, phytotoxicity rating (0-100), DIGSA ([6]; 63 g ai/ha): 30
- Pre-emerge Herbicidal Activity, phytotoxicity rating (0-100), DIGSA ([6]; 250 g ai/ha): 80
- Pre-emerge Herbicidal Activity, phytotoxicity rating (0-100), CASOB ([7]; 63 g ai/ha): 80
- Pre-emerge Herbicidal Activity, phytotoxicity rating (0-100), CASOB ([7]; 250 g ai/ha): 100
- Pre-emerge Herbicidal Activity, phytotoxicity rating (0-100), ABUTH ([8]; 63 g ai/ha): 100
- Pre-emerge Herbicidal Activity, phytotoxicity rating (0-100), ABUTH ([8]; 250 g ai/ha): 100
- Pre-emerge Herbicidal Activity, phytotoxicity rating (0-100), CHEAL ([9]; 63 g ai/ha): 100
- Pre-emerge Herbicidal Activity, phytotoxicity rating (0-100), CHEAL ([9]; 250 g ai/ha): 100
- Pre-emerge Herbicidal Activity, phytotoxicity rating (0-100), SETVI ([10]; 63 g ai/ha): 80
- Pre-emerge Herbicidal Activity, phytotoxicity rating (0-100), SETVI ([10]; 250 g ai/ha): 100
- Pre-emerge Herbicidal Activity, phytotoxicity rating (0-100), IPOHE ([11]; 63 g ai/ha): 0
- Pre-emerge Herbicidal Activity, phytotoxicity rating (0-100), IPOHE ([11]; 250 g ai/ha): 0
- Pre-emerge phytotoxicity rating (0-100), crop damage, RICE ([12]; 63 g ai/ha): 10
- Pre-emerge phytotoxicity rating (0-100), crop damage, RICE ([12]; 250 g ai/ha): 10
- Pre-emerge phytotoxicity rating (0-100), crop damage, CORN ([13]; 63 g ai/ha): 0
- Pre-emerge phytotoxicity rating (0-100), crop damage, CORN ([13]; 250 g ai/ha): 0
- phytotoxicity rating ECHCG ([14]; 63 g ai/ha): 20
- phytotoxicity rating ECHCG ([14]; 250 g ai/ha): 30
- phytotoxicity rating SORHA ([15]; 63 g ai/ha): 0
- phytotoxicity rating SORHA ([15]; 250 g ai/ha): 30
- phytotoxicity rating DIGSA ([16]; 63 g ai/ha): 0
- phytotoxicity rating DIGSA ([16]; 250 g ai/ha): 30
- phytotoxicity rating CASOB ([17]; 63 g ai/ha): 100
- phytotoxicity rating CASOB ([17]; 250 g ai/ha): 100
- phytotoxicity rating ABUTH ([18]; 63 g ai/ha): 100
- phytotoxicity rating ABUTH ([18]; 250 g ai/ha): 100
- phytotoxicity rating CHEAL ([19]; 63 g ai/ha): 90
- phytotoxicity rating CHEAL ([19]; 250 g ai/ha): 90
- phytotoxicity rating SETVI ([20]; 63 g ai/ha): 40
- phytotoxicity rating SETVI ([20]; 250 g ai/ha): 50
- phytotoxicity rating AMARE ([21]; 63 g ai/ha): 100
- phytotoxicity rating AMARE ([21]; 250 g ai/ha): 100
- phytotoxicity rating IPOHE ([22]; 63 g ai/ha): 60
- phytotoxicity rating IPOHE ([22]; 250 g ai/ha): 90
